17 molecules from patent US5171837A, “Peptide capable of binding interleukin 6 and an adsorbent comprising the peptide immobilized on a carrier” (Kuraray Co., Ltd., priority 1989, dated 1992) can be followed below.

Non-standard residues stand in square brackets, D forms with d. Residues, ends and D or L forms follow the SMILES beside them. No end group written: not given here. *: point of attachment. X1 = NCCCCCCCCCCCCCCCCCC(=O)*; 12Ado = NCCCCCCCCCCCC(=O)O

The target in the assay is T1, IL-6 (Homo sapiens, UniProt P05231).
T1 construct: purchased Genzyme Corp
T1 sequence (P05231 30-212): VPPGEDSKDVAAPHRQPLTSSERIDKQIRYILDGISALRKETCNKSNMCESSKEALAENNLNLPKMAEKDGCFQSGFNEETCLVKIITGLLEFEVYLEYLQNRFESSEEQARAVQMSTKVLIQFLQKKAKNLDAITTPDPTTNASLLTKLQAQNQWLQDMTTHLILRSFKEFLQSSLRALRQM
Briefly: Activity for inhibition of binding of IL-6 to receptor by peptide (IL-6 receptor expression cells, FITC labeled anti-IL-6 antibody). The conditions noted are these: 5 μg of the peptide, 50 ng of IL-6, 10^5 IL-6 receptor expression cells, 4° C for one hour. How it is done:
A human lymphocyte fraction was obtained from human peripheral blood with Ficoll-Paque (manufactured by Pharmacia-LKB). The fraction was reacted with a cultured supernatant of Epstein-Barr Virus producing cell strain B958 to transform the human lymphocytes to obtain IL-6 receptor expression cells.
1 mg of anti-human IL-6 antibody [Rabbit Anti-human Interleukin-6, manufactured by Genzyme Corp.] was dissolved in a 0.05M carbonate buffer solution (pH: 9.5) and to the resulting solution was added 10 μg of FITC [Fluorescein isothiocyanate, manufactured by Sigma Corp.]. The mixture was stirred at 4° C. overnight. The resulting solution was passed through PD-10 column (manufactured by Pharmacia-LKB) to obtain FITC labeled anti-IL-6 antibody as a firstly eluted fraction.
10^5 IL-6 receptor expression cells were suspended in 0.5 % BSA (bovine serum albumin, manufactured by Sigma Corp.)-PBS (a phosphate buffer solution containing 0.15 M sodium chloride, pH 7.4) and to the resulting suspension were added 50 ng of IL-6 (Human recombinant interleukin-6, manufactured by Genzyme Corp.) and 5 μg of the peptide obtained in any one of Examples 1 to 96. The suspension was allowed to stand at 4° C for one hour. Then, after washing the cells centrifugally with 0.5% BSA-PBS three times (1200 rpm, 5 min.), 1 μg of FITC labeled anti-IL-6 antibody was added and the mixture was allowed to stand at 4° C. for 30 minutes. After washing with 0.5% BSA-PBS three times, the intensity of fluorescence of the cells was determined. The binding inhibition activity of the peptide of each Example was evaluated, by taking the value obtained without addition of the peptide as a control and taking the value- obtained without addition of IL-6 as a blank, according to the following formula: [formula]
Take “DDDDDPHSWNSSFYRLRFELRYRAERSKAAG-NH2 [Example 72]”: the “Binding inhibition activity (%)” value stood at 57%.
With KTSLPGDSVTLTCPGVEPEDD-NH2 [Example 6], the “Binding inhibition activity (%)” value is reported as 36%.
The same measure for `CC(C)C[C@H](NC(=O)[C@H](Cc1c[nH]c2ccccc12)NC(=O)[C@H](CCCNC(=N)N)NC(=O)[C@@H]1CCCN1C(=O)[C@H](CC(N)=O)NC(=O)CCCCCCCCCCCN)C(=O)N[C@@H](CO)C(=O)N[C@H](C(=O)N[C@H](C(=O)N[C@@H](Cc1c[nH]c2ccccc12)C(=O)N[C@@H](CCC(N)=O)C(=O)N[C@@H](CC(=O)O)C(=O)N1CCC[C@H]1C(=O)N[C@@H](Cc1c[nH]cn1)C(=O)N[C@@H](CO)C(=O)N[C@@H](CCC(=O)O)C(=O)N[C@@H](CCC(=O)O)C(=O)N[C@@H](CCC(=O)O)C(=O)N[C@@H](CCC(=O)O)C(=O)N[C@@H](CCC(=O)O)C(=O)O)[C@@H](C)O)C(C)C` [Example 51] (H-[12Ado]NPRWLSVTWQDPHSEEEEE-OH): 32%; for “KDPHSWNSSFYRLRFELRYRAERSKD-NH2 [Example 78]”: 60%; for `CC(C)C[C@H](NC(=O)[C@H](Cc1c[nH]cn1)NC(=O)[C@@H](NC(=O)[C@@H](NC(=O)CNC(=O)CCCCCCCCCCCN)[C@@H](C)O)C(C)C)C(=O)N[C@@H](CC(C)C)C(=O)N[C@H](C(=O)N[C@@H](CC(=O)O)C(=O)N[C@H](C(=O)N1CCC[C@H]1C(=O)N1CCC[C@H]1C(=O)N[C@@H](CCC(=O)O)C(=O)N[C@@H](CCC(=O)O)C(=O)N1CCC[C@H]1C(=O)N[C@@H](CCC(N)=O)C(=O)N[C@@H](CC(C)C)C(=O)N[C@@H](CO)C(=O)N[C@@H](CS)C(=O)N[C@@H](Cc1ccccc1)C(=O)N[C@@H](CCCNC(=N)N)C(=O)N[C@@H](CCCCN)C(=O)N[C@@H](CCC(=O)O)C(=O)N[C@@H](CCC(=O)O)C(=O)N[C@@H](CCC(=O)O)C(=O)N[C@@H](CCC(=O)O)C(=O)N[C@@H](CCC(=O)O)C(=O)O)C(C)C)C(C)C` [Example 11] (H-[12Ado]GTVHLLVDVPPEEPQLSCFRKEEEEE-OH): 34%.
As to `CC(C)C[C@H](NC(=O)[C@H](CCC(=O)O)NC(=O)[C@H](Cc1ccccc1)NC(=O)[C@H](CCCNC(=N)N)NC(=O)[C@H](CC(C)C)NC(=O)[C@H](CCCNC(=N)N)NC(=O)[C@H](Cc1ccc(O)cc1)NC(=O)[C@H](Cc1ccccc1)NC(=O)[C@H](CO)NC(=O)[C@H](CO)NC(=O)[C@H](CC(N)=O)NC(=O)[C@H](Cc1c[nH]c2ccccc12)NC(=O)[C@H](CO)NC(=O)[C@H](Cc1c[nH]cn1)NC(=O)[C@@H]1CCCN1C(=O)[C@H](CC(=O)O)NC(=O)[C@H](CCC(N)=O)NC(=O)[C@H](Cc1c[nH]c2ccccc12)NC(=O)CCCCCCCCCCCN)C(=O)N[C@@H](CCCNC(=N)N)C(=O)N[C@@H](Cc1ccc(O)cc1)C(=O)N[C@@H](CCCNC(=N)N)C(=O)N[C@@H](C)C(=O)N[C@@H](CCC(=O)O)C(=O)N[C@@H](CCCNC(=N)N)C(=O)N[C@@H](CO)C(=O)N[C@@H](CCCCN)C(=O)N[C@@H](CCC(=O)O)C(=O)N[C@@H](CCC(=O)O)C(=O)N[C@@H](CCC(=O)O)C(=O)N[C@@H](CCC(=O)O)C(=O)N[C@@H](CCC(=O)O)C(=O)O` [Example 91] (H-[12Ado]WQDPHSWNSSFYRLRFELRYRAERSKEEEEE-OH), the “Binding inhibition activity (%)” value came to 60%.
“KKQDPHSWNSSFYRLRFELRYRAERSK [Example 82]”: the “Binding inhibition activity (%)” value came to 70%.
Regarding WQDPHSWNSSFYRLRFELRYRAERSK [Example 93], the “Binding inhibition activity (%)” value is on record as 59%.
For “EEERKFQNSPAEDFQEPCQYSQESKG-NH2 [Example 23]”, the “Binding inhibition activity (%)” value turned out to be 58%.
In the case of KKPHSWNSSFYRLRFELRYRAERSK [Example 66], the “Binding inhibition activity (%)” value is 65%.
Take `CC[C@H](C)[C@H](NC(=O)[C@H](CC(N)=O)NC(=O)[C@H](CC(=O)O)NC(=O)[C@H](CC(=O)O)NC(=O)[C@H](CC(=O)O)NC(=O)[C@H](CCCCN)NC(=O)[C@H](CC(N)=O)NC(=O)[C@@H](NC(=O)[C@@H](NC(=O)[C@H](CC(C)C)NC(=O)[C@H](C)NC(=O)[C@H](CCC(N)=O)NC(=O)CCCCCCCCCCCCCCCCCN)[C@@H](C)O)[C@@H](C)O)C(=O)N[C@@H](CC(C)C)C(=O)N[C@@H](Cc1ccccc1)C(=O)N[C@@H](CCCNC(=N)N)C(=O)N[C@@H](CC(=O)O)C(=O)N[C@@H](CO)C(=O)N[C@@H](C)C(=O)NCC(=O)O` [Example 28] (X1-QALTTNKDDDNILFRDSAG-OH): the “Binding inhibition activity (%)” value is on record as 47%.
Take NPRWLSVTWQDPHSK [Example 49]: the “Binding inhibition activity (%)” value amounted to 30%.
For the molecule PHSWNSSFYRLRFELRYRAERSK [Example 69], the “Binding inhibition activity (%)” value was 54%.
As for RKFQNSPAEDFQEPCQYSQES [Example 21], the “Binding inhibition activity (%)” value was 52%.
Regarding KKGTVHLLVDVPPEEPQLSCFRK [Example 10], the “Binding inhibition activity (%)” value was determined as 28%.
The same measure for `CC(C)C[C@H](NC(=O)[C@@H](NC(=O)[C@@H](NC(=O)[C@H](CO)NC(=O)[C@H](CC(=O)O)NC(=O)CNC(=O)[C@@H]1CCCN1C(=O)[C@H](CC(C)C)NC(=O)[C@H](CO)NC(=O)[C@@H](NC(=O)CCCCCCCCCCCN)[C@@H](C)O)C(C)C)[C@@H](C)O)C(=O)N[C@H](C(=O)N[C@@H](CS)C(=O)N1CCC[C@H]1C(=O)NCC(=O)N[C@H](C(=O)N[C@@H](CCC(=O)O)C(=O)N1CCC[C@H]1C(=O)N[C@@H](CCC(=O)O)C(=O)N[C@@H](CC(=O)O)C(=O)N[C@@H](CCC(=O)O)C(=O)N[C@@H](CCC(=O)O)C(=O)N[C@@H](CCC(=O)O)C(=O)N[C@@H](CCC(=O)O)C(=O)N[C@@H](CCC(=O)O)C(=O)O)C(C)C)[C@@H](C)O` [Example 3] (H-[12Ado]TSLPGDSVTLTCPGVEPEDEEEEE-OH): 40%; for “EEEWNSSFYRLRFELRYRAERSKKG-NH2 [Example 39]”: 58%.
